In data set [1] the test system is human CAG-heparanase myeloma cells. Nature of the data set: Systemic SCID-CAG-heparanase multiple myeloma model. The format is in vivo, Male SCID mice. Particulars: for Human serum κ / IL-6 / Serum TRAcP 5b: osmotic pump, 4 weeks. How it is done:
The Table 2 below provides an analysis of the systemic SCID-CAG-heparanase model treated with increasing doses of Compound No 1 according to the present invention.
Table 2: Analyses of the Systemic SCID-CAG-Heparanase Model Treated with Increasing Doses of Compound No 1
Male SCID mice were injected via tail vein with 1.7×10^6 CAG-hpse cells and tumors allowed to establish over 2 weeks. Groups were randomized according to serum human kappa levels (n=15/group). Treatments were initiated at 2 weeks and continued for 4 weeks. Mice were treated with either saline or 0.3, 3.0, or 30 mg/kg/day of Compound No 1 peptide delivered by osmotic pumps. Pumps were replaced after 2 weeks and fresh peptide and pumps installed. *p<0.05 vs saline.

Data set [2] can be described thus: Plasma pharmacokinetics after single intravenous and oral administration. The format is in vivo, male Swiss Albino mice.
In data set [3] the target is Recombinant latent TGF-beta incubated with TSP1 (Homo sapiens, UniProt P07996). In words: TSP1 activation of recombinant latent TGF-beta, ELISA specific for active TGF-beta. Particulars: latent TGF-beta 500 pM, TSP1 48 nM, compounds 1-100 pM; read-out: Activity (IC 50). It counts as biochemical. As for the experimental part:
The assay for the IC 50 (Activity) data in Table 1 was as follows: Recombinant latent TGF-beta (500 pM) is incubated with TSP1 (48 nM) in the absence or presence of increasing concentrations of the identified compounds (1-100 pM). TGF-beta activity in the samples was measured using an ELISA specific for active TGF-beta (R&D Systems). IC50 values were calculated from the curves.
On the technique in general: In an ELISA, binding on a coated surface is turned into a signal by an enzyme label.

Another data set relates to TSP1-TGF-β activation. Particulars: cited from earlier work.
Data set [4] can be described thus: Plasma stability half-life. The format is in vitro ADME. The text has this: Peptides comprising the amino acid sequence LSKL, including the tetrapeptide LSKL, for inhibiting TGF-β activity and the use of these peptides and certain functional derivatives thereof for the treatment of kidney disease are described in U.S. Pat. No. 6,384,189 and U.S. Pat. No. 6,458,767. It is desirable to employ small molecules such as, e.g., LSKL because they are easier to synthesize and, thus, less costly. […] Accordingly, there is a need for small molecules which affect the activation of TGF-β and which also have an extended plasma stability half-life.

The mark [5] stands for this setting: male, Swiss Albino, mouse, iv, 1 mg/kg.
The mark [6] stands for this setting: male, Swiss Albino, mouse, po, 3 mg/kg.

Data on 16 molecules can be found in patent publication US9353149B2, “Compounds, compositions and methods for the treatment of diseases through inhibiting TGF-β activity” (Southern Research Institute, priority 2013, dated 2016).

For orientation: AUC(0-inf) means total exposure, with the tail of the curve extrapolated. A word on the AUC(0-t): it is exposure summed from dosing to a finite time, without extrapolation to infinity. For orientation: half-life means how long it takes for the measured level to halve. As usually defined, the bioavailability is the share of a dose that reaches the circulation, judged against a reference dose that is usually intravenous. Read a low bioavailability as little systemic uptake. A word on the Cmax: it is the maximum level reached in the sampled fluid or tissue. Broadly, the Tmax is the time at which the peak concentration occurs.

Marks after values point to notes of the source that are not given here. Residues, ends and D or L forms follow the SMILES beside them.

Recombinant latent TGF-beta incubated with TSP1, sequence (P07996 19-1170): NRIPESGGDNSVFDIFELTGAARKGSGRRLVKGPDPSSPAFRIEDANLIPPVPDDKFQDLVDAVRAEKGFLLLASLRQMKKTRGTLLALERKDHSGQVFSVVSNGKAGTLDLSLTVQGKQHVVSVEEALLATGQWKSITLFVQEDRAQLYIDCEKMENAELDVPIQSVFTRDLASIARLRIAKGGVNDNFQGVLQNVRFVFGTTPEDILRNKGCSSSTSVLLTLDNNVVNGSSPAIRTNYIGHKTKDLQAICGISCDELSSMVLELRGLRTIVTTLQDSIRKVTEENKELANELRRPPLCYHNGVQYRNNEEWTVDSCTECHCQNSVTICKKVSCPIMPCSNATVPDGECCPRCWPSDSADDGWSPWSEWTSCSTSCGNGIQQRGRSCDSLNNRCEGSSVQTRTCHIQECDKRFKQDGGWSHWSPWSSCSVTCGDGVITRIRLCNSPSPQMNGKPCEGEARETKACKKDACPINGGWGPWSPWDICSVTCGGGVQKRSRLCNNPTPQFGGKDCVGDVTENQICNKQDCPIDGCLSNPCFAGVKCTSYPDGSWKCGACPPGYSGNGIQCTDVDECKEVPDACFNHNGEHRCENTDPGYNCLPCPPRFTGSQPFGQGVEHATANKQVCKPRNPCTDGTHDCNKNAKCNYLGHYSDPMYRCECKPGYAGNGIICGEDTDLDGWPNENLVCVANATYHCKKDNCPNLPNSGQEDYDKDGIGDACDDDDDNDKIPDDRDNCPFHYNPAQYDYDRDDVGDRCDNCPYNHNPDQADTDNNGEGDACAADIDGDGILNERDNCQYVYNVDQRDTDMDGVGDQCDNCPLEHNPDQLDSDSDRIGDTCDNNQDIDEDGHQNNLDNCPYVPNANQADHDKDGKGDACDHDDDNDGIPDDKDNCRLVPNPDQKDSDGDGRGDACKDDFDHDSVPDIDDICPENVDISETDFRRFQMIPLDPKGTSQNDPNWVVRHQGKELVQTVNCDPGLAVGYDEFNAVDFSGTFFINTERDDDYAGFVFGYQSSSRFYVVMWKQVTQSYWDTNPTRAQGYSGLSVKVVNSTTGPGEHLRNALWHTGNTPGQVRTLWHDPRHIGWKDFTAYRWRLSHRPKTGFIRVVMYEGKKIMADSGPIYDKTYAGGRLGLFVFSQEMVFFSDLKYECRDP

For `CC(=O)N[C@@H](CO)C(=O)N[C@@H](CCCCN)C(=O)N[C@@H](CC(C)C)C(N)=O` [Compound 1] (Ac-Ser-Lys-Leu-NH2), in data set [1] (0.3 mg/kg/day), the “Human serum κ” value was 5134 ± 696 ng/mL, the IL-6 was found to be 70.2 ± 4.7 pg/mL and the “Serum TRAcP 5b” value is 3.6 +/− 0.28 U/L. Moreover, in data set [1] (3.0 mg/kg/day), the “Human serum κ” value was 3465 +/− 422* ng/ml, the IL-6 is 40.0 +/− 4.2* pg/ml and the “Serum TRAcP 5b” value is reported as 2.8 +/− 0.15* U/L. For the same molecule, the “tibial bone loss (FIG. 1)” value in data set [1] (30 mg/kg dose, SCID/CAG-hpse MM model) is “reducing tibial bone loss”. For the same molecule, in data set [1] (30 mg/kg/day), the “TRAP^+ OC/mm BS” value is 1.0 +/− 0.2*, the “p-Smad 2 IHC in bone marrow” value was 2390 +/− 472* arbitrary units, the “Human serum κ” value was 2593 +/− 443* ng/ml and the IL-6 is 31.8 +/− 4.0* pg/ml. Also, the “Serum TRAcP 5b” value in data set [1] (30 mg/kg/day) is on record as 2.5 +/− 0.13* U/L. In data set [1] (30 mg/kg/day, n = 4), the “μCT (tibia) BV/TV” value is 0.13 +/− 0.01*, the “μCT (tibia) TbN” value is listed as 4.03 +/− 0.28* and the “μCT (tibia) TbSp” value was 0.25 +/− 0.02*. This molecule displayed a Co in data set [2] (i.v., 1 mg/kg) of 1025.73 ng/mL. In data set [2] (setting [5]), the AUC(0-inf) amounted to 1380 ng·h/mL, the AUC(0-t) amounted to 1210 ng·h/mL, the clearance stood at 12.1 mL/min/kg and the half-life is 637 min. Moreover, the Vd in data set [2] (male, Swiss Albino, mouse, iv, 1 mg/kg, read-out: Vss) is 6.31 L/kg. Further, in data set [2] (male, Swiss Albino, mouse, oral 3 mg/kg vs i.v. 1 mg/kg), the bioavailability worked out at 24%. For the same molecule, in data set [2] (setting [6]), the AUC(0-inf) stood at 1070 ng·h/mL, the AUC(0-t) turned out to be 875 ng·h/mL, the concentration peaked (Cmax) at 208 ng/mL and the Tmax was found to be 30 min. Besides, in data set [3], the IC50 is 0.001 to 0.01 nM.
As to `CC(=O)N[C@H](C(=O)N[C@@H](CCCCN)C(=O)N[C@@H](CC(C)C)C(N)=O)C(C)O` (some centres unmarked) [Compound 2] (HELM PEPTIDE1{[ac].[CC(O)[C@H](N[*:1])C(=O)[*:2]].K.L.[am]}$$$$V2.0), the IC50 in data set [3] lay in the range of 0.05 to 0.1 nM.
The same measure, in the same setting: the value for `CC(=O)N[C@@H](CO)C(=O)N[C@@H](CCCCN)C(=O)N(C)[C@@H](CC(C)C)C(N)=O` [Compound 10] (HELM PEPTIDE1{[ac].S.K.[meL].[am]}$$$$V2.0) was 0.1 to 0.5 nM; that for `CNC(=O)[C@H](CC(C)C)NC(=O)[C@H](CCCCN)NC(=O)[C@H](CO)NC(C)=O` [Compound 13] (HELM PEPTIDE1{[ac].S.K.L.[CN[*:1]]}$$$$V2.0) was 0.05 to 0.1 nM; that for `CNC(=O)[C@H](CC(C)C)NC(=O)[C@@H](CCCCN)NC(=O)[C@@H](NC(C)=O)C(C)O` (some centres unmarked) [Compound 14] (HELM PEPTIDE1{[ac].[CC(O)[C@H](N[*:1])C(=O)[*:2]].[dK].L.[CN[*:1]]}$$$$V2.0) was 0.001 to 0.01 nM.
On the same count and under the same terms, to `CC(=O)N[C@@H](CO)C(=O)N[C@@H](CCCCN(C)C)C(=O)N[C@@H](CC(C)C)C(N)=O` [Compound 22] (HELM PEPTIDE1{[ac].S.[CN(C)CCCC[C@H](N[*:1])C(=O)[*:2]].L.[am]}$$$$V2.0) belongs 0.1 to 0.5 nM; to `CC(=O)N[C@@H](CO)C(=O)N[C@@H](CCCCN)C(=O)N[C@@H](CC1CC1)C(N)=O` [Compound 37] (HELM PEPTIDE1{[ac].S.K.[O=C([C@H](CC1CC1)N[*:1])[*:2]].[am]}$$$$V2.0), 0.05 to 0.1 nM.
As for `CC(=O)N[C@H](CO)C(=O)N[C@@H](CCCCN)C(=O)N[C@@H](CC(C)C)C(N)=O` [Compound 94] (HELM PEPTIDE1{[ac].[dS].K.L.[am]}$$$$V2.0), in data set [3], the IC50 lay in the range of 0.1 to 0.5 nM.
As to `CC(=O)N[C@@H](CO)C(=O)N[C@H](CCCCN)C(=O)N[C@@H](CC(C)C)C(N)=O` [Compound 95] (HELM PEPTIDE1{[ac].S.[dK].L.[am]}$$$$V2.0), the IC50 in data set [3] is 0.001 to 0.01 nM.
The same measure, in the same setting: to `CC(=O)N[C@@H](CO)C(=O)N[C@@H](CCCCN)C(=O)N[C@H](CC(C)C)C(N)=O` [Compound 96] (HELM PEPTIDE1{[ac].S.K.[dL].[am]}$$$$V2.0) belongs 0.05 to 0.1 nM; to `CC(=O)N[C@@H](CO)C(=O)N[C@@H](CCCCN)C(=O)N[C@@H](CC(C)C)C(=O)N(C)C` [Compound 97] (HELM PEPTIDE1{[ac].S.K.L.[CN(C)[*:1]]}$$$$V2.0), 0.1 to 0.5 nM.
Still for that read-out and setting: the value for `CNCCCC[C@H](NC(=O)[C@H](CO)NC(C)=O)C(=O)N[C@@H](CC(C)C)C(N)=O` [Compound 98] (HELM PEPTIDE1{[ac].S.[CNCCCC[C@H](N[*:1])C(=O)[*:2]].L.[am]}$$$$V2.0) was 0.1 to 0.5 nM; that for `CC(=O)NCCCC[C@H](NC(=O)[C@H](CO)NC(C)=O)C(=O)N[C@@H](CC(C)C)C(N)=O` [Compound 99] (Ac-Ser-Lys(Ac)-Leu-NH2) was 0.1 to 0.5 nM; that for `COC[C@H](NC(C)=O)C(=O)N[C@@H](CCCCN)C(=O)N[C@@H](CC(C)C)C(N)=O` [Compound 100] (Ac-Ser(Me)-Lys-Leu-NH2) was 0.1 to 0.5 nM.
Still for that read-out and setting: to `CCC(=O)N[C@@H](CO)C(=O)N[C@@H](CCCCN)C(=O)N[C@@H](CC(C)C)C(N)=O` [Compound 101] (HELM PEPTIDE1{[CCC(=O)[*:2]].S.K.L.[am]}$$$$V2.0) belongs 0.1 to 0.5 nM.
As to `CC(C)C[C@H](NC(=O)[C@H](CCCCN)NC(=O)[C@H](CO)NC(=O)[C@@H](N)CC(C)C)C(=O)O` [LSKL, leucine-serine-lysine-leucine] (H-LSKL-OH; N-terminus and C-terminus assumed), in the data set with TSP1-TGF-β activation (after 15 weeks of 30 mg/kg i.p., 3 times weekly), the necropsy findings result was “no inflammation, no tumors in all major organs, and no impairment of wound healing”. In the data set with TSP1-TGF-β activation (systemic administration, diabetic mice), the “Smad signaling and dermal wound healing” value was “did not reduce Smad signaling or impair dermal wound healing”. The molecule also returned a half-life in data set [4] of 2.1 min.
